Patent US5091522A, “Retinoic esters of D-desosamine, process for their preparation and their use in human or veterinary medicine and in cosmetic compositions” (L'Oreal, priority 1989, dated 1992)
≈ marks a conversion by molar mass, not a printed value. Like-named read-outs stand apart in the source and are kept apart here.

Columns and labels:
Assay type in all cases: cell-based
[1] = tested on: Propionibacterium acnes P37 E⊕; assay: Minimum inhibiting concentration (MIC) by dilution method, P. acnes P37 E⊕ (erythromycin-sensitive population); details: Cutibacterium acnes
Source text: (§1) The activity of retinoic esters of D-desosamines has been studied by the dilution method to determine the minimum inhibiting concentration (MIC). This method is described and employed by G. A. Denys et al, Antimicrobial Agents and Chemotherapy (1983) 23, 335-337 and J. J. Leyden et al, J.Am.Acad. Dermatol. (1983) 8 (1) 41-5, by using as the Propionibacterium acnes strain, strain P37 furnished by Cunliffe and Holland.
(§2) On the other hand, after 8 successive sub-cultures in the same medium (RCM* 19/20, DMSO 1/20 by volume) with the view of obtaining a progressive stabilization of this strain in this medium, a progressive resistance to erythromycin was manifested in the following form:
(§3) after spreading a standardized inoculum (DO=1.8 at 450 nm) on a gelose medium (RCM+furazolidone), in a Petri dish, a 9 mm diameter disc is deposited at its center. On the disc, 50 μg of erythromycin (in solution in DMSO) are deposited.
(§4) The two types of colonies are then retained by stripping of the gelose medium (sterilized platinum loop):
(2) at 1 cm beyond the periphery of the inhibition zone, there are stripped off strains called P37 E⊕.
(§5) After isolation and culturing, the P37 E⊕ and P37 E⊖ strains effectively show very different sensitivities to erythromycin as illustrated by the following MIC values:
(§6) The minimum concentration (MIC), expressed in μg/ml of the retinoic esters of D-desosamine tested vis-a-vis strains of Propionibacterium acnes P37, P37 E⊕ and P37 E⊖ and staphilococcus epidermis ATCC 12228, is reported in the following table: […]

[2] = tested on: staphilococcus epidermis ATCC 12228; assay: Minimum inhibiting concentration (MIC) by dilution method, staphilococcus epidermis ATCC 12228; details: read-out: minimum concentration (MIC), TABLE I
Source text: as §1, §6

[3] = tested on: Propionibacterium acnes P37 E⊖; assay: Minimum inhibiting concentration (MIC) by dilution method, P. acnes P37 E⊖ (erythromycin-resistant population); details: Cutibacterium acnes, P37E.CRCLBAR.
Source text: as §1, §2, §3, §4
(1) at the interior of the inhibition zone there are stripped off strains, called P37 E⊖ by reason of their apparent resistance to erythromycin.
as §5, §6

[4] = tested on: Propionibacterium acnes P37; assay: Minimum inhibiting concentration (MIC) by dilution method, P. acnes strain P37
Source text: as §1, §6

[5] = tested on: Propionibacterium acnes P37 E⊕; assay: IC 50 (50% survivors among the population at constant culturing time), P37 E⊕; details: Cutibacterium acnes, read-out: IC 50 (inhibiting concentration at 50%)
Source text: (§7) This phenomenon is confirmed by the study of the IC 50 (inhibiting concentration at 50% which represents the concentration of erythromycin where, at a constant culturing time, 50% survivors among the population are found

[6] = tested on: Propionibacterium acnes strain P37; assay: Disc inhibition zone on gelose medium; details: Cutibacterium acnes, P37, 144 h; 50 μg erythromycin on 9 mm disc; 6 days at 36 C, anaerobic; RCM+furazolidone; after 8 sub-cultures; read-out: inhibition zone of the growth of the strain (total diameter)
Protocol: as §2, §3
After 6 days at 36.C in an anaerobic medium (GAS-PAK, B.B.L. system) an inhibition zone of the growth of the strain is clearly visible (total diameter =42 mm), the majority of the colonies being situated at the periphery of the inhibition zone.

[7] = tested on: Propionibacterium acnes P37; assay: IC 50 (50% survivors among the population at constant culturing time), P37; details: Cutibacterium acnes, P37, read-out: IC 50 (inhibiting concentration at 50%)
Source text: as §7

[8] = tested on: Propionibacterium acnes P37 E⊖; assay: IC 50 (50% survivors among the population at constant culturing time), P37 E⊖; details: Cutibacterium acnes, P37E.CRCLBAR., read-out: IC 50 (inhibiting concentration at 50%)
Source text: as §7

[9] = P37E.SYM., P37 E⊕, read-out: minimum concentration (MIC), TABLE I
[10] = read-out: minimum concentration (MIC), TABLE I
[11] = Cutibacterium acnes, P37, read-out: minimum concentration (MIC), TABLE I
[12] = Cutibacterium acnes, P37; read-out: minimum concentration (MIC), TABLE I

In the case of CCCCOC1O[C@H](C)C[C@H](N(C)C)[C@H]1OC(=O)\C=C(C)/C=C/C=C(C)/C=C/C1=C(C)CCCC1(C)C (stereo partly drawn) [Compound 1, O-retinoyl (13 cis)-2-O-butyl-1-α,β-D-desosamine], the MIC [1, 9] is reported as 21 µg/mL (≈ 40.9 µM), the MIC ([2]; ATCC 12228) is reported as 18.5 µg/mL (≈ 36 µM) and the MIC [3, 10] is reported as 10.5 µg/mL (≈ 20.4 µM). For the same compound, the MIC [4, 11] was 10.5 µg/mL (≈ 20.4 µM).
CCCCOC1O[C@H](C)C[C@H](N(C)C)[C@H]1OC(=O)/C=C(C)/C=C/C=C(C)/C=C/C1=C(C)CCCC1(C)C (stereo partly drawn) [Compound 2, O-retinoyl (all trans)-2-O-butyl-1-α-β-D-desosamine] gave an MIC [1, 9] of 25 µg/mL (≈ 48.7 µM), an MIC ([2]; ATCC 12228) of 3.5 µg/mL (≈ 6.81 µM) and an MIC [3, 10] of 9 µg/mL (≈ 17.5 µM). For the same compound, the MIC [4, 12] was 15 µg/mL (≈ 29.2 µM).
With CCCCOC1O[C@H](C)C[C@H](N(C)C)[C@H]1OC(=O)/C=C(C)/C=C/C=C(C)/C=C/c1c(C)cc(OC)c(C)c1C (stereo partly drawn) [Compound 5, O-etretinoyl (all trans)-2-O-butyl-1-α,β-D-desosamine] the MIC [1, 9] was 6 µg/mL (≈ 11.1 µM), the MIC ([2]; ATCC 12228) was 6 µg/mL (≈ 11.1 µM) and the MIC [3, 10] was 6 µg/mL (≈ 11.1 µM). It also gave an MIC [4, 12] of 3 µg/mL (≈ 5.56 µM).
With CCCCO[C@H]1O[C@H](C)C[C@H](N(C)C)[C@H]1OC(=O)/C=C(C)/C=C/C=C(C)/C=C/c1c(C)cc(OC)c(C)c1C [Compound 6, O-etretinoyl (all trans)-2-O-butyl-1-α-D-desosamine] the MIC [1, 9] was 4.3 µg/mL (≈ 7.97 µM), the MIC ([2]; ATCC 12228) was 1.5 µg/mL (≈ 2.78 µM) and the MIC [3, 10] was 2.1 µg/mL (≈ 3.89 µM). It also gave an MIC [4, 12] of 19 µg/mL (≈ 35.2 µM).
CCCCO[C@@H]1O[C@H](C)C[C@H](N(C)C)[C@H]1OC(=O)/C=C(C)/C=C/C=C(C)/C=C/c1c(C)cc(OC)c(C)c1C [Compound 7, O-etretinoyl (all trans)-2-O-butyl-1-β-D-desosamine] showed an MIC [1, 9] of 40 µg/mL (≈ 74.1 µM), an MIC ([2]; ATCC 12228) of 2.3 µg/mL (≈ 4.26 µM) and an MIC [3, 10] of 14.5 µg/mL (≈ 26.9 µM). For the same compound, the MIC [4, 12] was 5.2 µg/mL (≈ 9.63 µM).
CCCCOC1O[C@H](C)C[C@H](N(C)C)[C@H]1O (stereo partly drawn) [O-butyl-1-α,β-D-desosamine, reference compound] showed an MIC [1, 9] of over 100 µg/mL, an MIC ([2]; ATCC 12228) of over 100 µg/mL and an MIC [3, 10] of over 110 µg/mL. The MIC [4, 12] was over 100 µg/mL.
For CO[C@H]1O[C@H](COC(=O)\C=C(C)/C=C/C=C(C)/C=C/C2=C(C)CCCC2(C)C)[C@@H](O)[C@H](O)[C@H]1O [O-retinoyl (13 cis)-6-O-methyl-1-α-D-glucopyrannose, reference compound], the MIC [1, 9] was over 45 µg/mL, the MIC ([2]; ATCC 12228) was over 45 µg/mL and the MIC [3, 10] was over 45 µg/mL. It also gave an MIC [4, 12] of over 45 µg/mL.
CC[C@H]1OC(=O)[C@H](C)[C@@H](O[C@H]2C[C@@](C)(OC)[C@@H](O)[C@H](C)O2)[C@H](C)[C@@H](O[C@@H]2O[C@H](C)C[C@H](N(C)C)[C@H]2O)[C@](C)(O)C[C@@H](C)C(=O)[C@H](C)[C@@H](O)[C@]1(C)O [erythromycin] was tested, and the IC50 [5] was 5 µg/mL (≈ 6.81 µM), the MIC [1] was 0.78 µg/mL (≈ 1.06 µM) and the zone of inhibition at 50 µg/disc [6] was 42 mm. It also gave an MIC [3] of 50 µg/mL (≈ 68.1 µM), an IC50 [7] of 50 µg/mL (≈ 68.1 µM) and an IC50 [8] of 100 µg/mL (≈ 136 µM). For the same compound, the MIC ([4]; Cutibacterium acnes, P37) was 0.78 µg/mL (≈ 1.06 µM).
Compound C[C@@H]1C[C@H](N(C)C)[C@@H](O)C(O)O1 (stereo partly drawn) [α,β-D-desosamine, reference compound] has an MIC [1, 10] of over 70 µg/mL, an MIC [2] of over 50 µg/mL and an MIC [3, 10] of over 70 µg/mL. The MIC [4, 11] was over 50 µg/mL.
